Results as given in US9028845B2, “Chimeric immunomodulatory compounds and methods of using the same-IV” (Dynavax Technologies Corporation, priority 2001, dated 2015).

Legend:
[1] = system: human PBMCs; test: Human PBMC cytokine response assay (IFN-γ and IFN-α in cell-free medium by ELISA), with or without cPLGA; type: cell-based;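 on IFN-α (pg/ml) mean: 20 µg/mL compound for 24 hours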;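 on IFN-γ (pg/ml) mean: 20 µg/mL compound for 24 hours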
[2] = system: PBMCs; test: Human PBMC proliferation assay (3H-thymidine incorporation); type: cell-based; conditions: Experiment A; for mean cpm: 2 μg/ml
[3] = system: CD19+ B cells; test: Human B cell proliferation assay (3H-thymidine incorporation); conditions: 2 μg/ml
[4] = Table 24, mean of donors 28234-28237
[5] = Table 25, mean of donors 28250-28253
[6] = donor 28066, 20 ug/ml, 24 h, + PLGA = premixed with 100 μg/ml cPLGA
[7] = donor 28067, 20 ug/ml, 24 h, + PLGA = premixed with 100 μg/ml cPLGA
[8] = donor 28068, 20 ug/ml, 24 h, + PLGA = premixed with 100 μg/ml cPLGA
[9] = mean of donors 28065-28068, 20 ug/ml, 24 h, + PLGA = premixed with 100 μg/ml cPLGA
[10] = mean of donors 28185-28188, Table 15
[11] = B cells, Donor 146, Experiment A
[12] = B cells, Donor 147, Experiment A

5′-TCGTCGA-3′-HEG-5′-TCGTCGA-3′-HEG-5′-TCGTCGA-3′ [Compound C-21]
IFN-α ([1]; Table 9, donor 28089): 56 pg/mL | IFN-γ ([1]; Table 9, donor 28089): 61 pg/mL | IFN-α ([1]; Table 9, donor 28090): 157 pg/mL | IFN-γ ([1]; Table 9, donor 28090): 68 pg/mL | IFN-α ([1]; Table 9, donor 28098): 286 pg/mL | IFN-γ ([1]; Table 9, donor 28098): 218 pg/mL | IFN-α ([1]; Table 9, donor 28099): 466 pg/mL | IFN-γ ([1]; Table 9, donor 28099): 124 pg/mL | IFN-α mean ([1]; Table 9, mean of donors): 241 pg/mL | IFN-γ mean ([1]; Table 9, mean of donors): 118 pg/mL | IFN-α ([1]; Table 10, donor 28042): 57 pg/mL | IFN-γ ([1]; Table 10, donor 28042): 790 pg/mL | IFN-α ([1]; Table 10, donor 28043): 72 pg/mL | IFN-γ ([1]; Table 10, donor 28043): 1519 pg/mL | IFN-α ([1]; Table 10, donor 28044): 79 pg/mL | IFN-γ ([1]; Table 10, donor 28044): 1198 pg/mL | IFN-α ([1]; Table 10, donor 28045): 15 pg/mL | IFN-γ ([1]; Table 10, donor 28045): 177 pg/mL | IFN-α mean ([1]; Table 10, mean of donors): 56 pg/mL | IFN-γ mean ([1]; Table 10, mean of donors): 921 pg/mL | IFN-α ([1]; Table 11, donor 28042): 146 pg/mL | IFN-γ ([1]; Table 11, donor 28042): 572 pg/mL | IFN-α ([1]; Table 11, donor 28043): 94 pg/mL | IFN-γ ([1]; Table 11, donor 28043): 460 pg/mL | IFN-α ([1]; Table 11, donor 28044): 191 pg/mL | IFN-γ ([1]; Table 11, donor 28044): 4000 pg/mL | IFN-α ([1]; Table 11, donor 28045): 349 pg/mL | IFN-γ ([1]; Table 11, donor 28045): 1644 pg/mL | IFN-α mean ([1]; Table 11, mean of donors): 195 pg/mL | IFN-γ mean ([1]; Table 11, mean of donors): 1669 pg/mL | IFN-α ([1]; Table 24, donor 28234): 16 pg/mL | IFN-γ ([1]; Table 24, donor 28234): 4 pg/mL | IFN-α ([1]; Table 24, donor 28235): 16 pg/mL | IFN-γ ([1]; Table 24, donor 28235): 107 pg/mL | IFN-α ([1]; Table 24, donor 28236): 73 pg/mL | IFN-γ ([1]; Table 24, donor 28236): 308 pg/mL | IFN-α ([1]; Table 24, donor 28237): 678 pg/mL | IFN-γ ([1]; Table 24, donor 28237): 1645 pg/mL | IFN-α mean [1, 4]: 196 pg/mL | IFN-γ mean [1, 4]: 516 pg/mL | IFN-a ([1]; Table 25, donor 28250): 31 pg/mL | IFN-g ([1]; Table 25, donor 28250, polynucleotides/spacers at amounts equivalent to the CIC, spacers alone 9 uM): 122 pg/mL | IFN-a ([1]; Table 25, donor 28251): 69 pg/mL | IFN-g ([1]; Table 25, donor 28251): 51 pg/mL | IFN-a ([1]; Table 25, donor 28252): 41 pg/mL | IFN-g ([1]; Table 25, donor 28252): 155 pg/mL | IFN-a ([1]; Table 25, donor 28253): 264 pg/mL | IFN-g ([1]; Table 25, donor 28253): 203 pg/mL | IFN-a mean [1, 5]: 101 pg/mL | IFN-g mean [1, 5]: 133 pg/mL | IFN-γ (pg/ml) 28065 ([1]; donor 28065 (high background), 20 ug/ml, 24 h, + PLGA = premixed with 100 μg/ml cPLGA, 1000 = outside assay limits): 653 pg/mL | IFN-α (pg/ml) 28065 ([1]; donor 28065, 20 ug/ml, 24 h, + PLGA = premixed with 100 μg/ml cPLGA): 227 pg/mL | IFN-α (pg/ml) 28066 [1, 6]: 24 pg/mL | IFN-γ (pg/ml) 28066 [1, 6]: 16 pg/mL | IFN-α (pg/ml) 28067 [1, 7]: 183 pg/mL | IFN-γ (pg/ml) 28067 [1, 7]: 24 pg/mL | IFN-α (pg/ml) 28068 [1, 8]: 769 pg/mL | IFN-γ (pg/ml) 28068 [1, 8]: 960 pg/mL | IFN-a ([1]; donor 28185, Table 15): 443 pg/mL | IFN-g ([1]; donor 28185, Table 15): 244 pg/mL | IFN-a ([1]; donor 28186, Table 15): 64 pg/mL | IFN-g ([1]; donor 28186, Table 15): 37 pg/mL | IFN-a ([1]; donor 28187, Table 15): 1 pg/mL | IFN-g ([1]; donor 28187, Table 15): 125 pg/mL | IFN-a ([1]; donor 28188, Table 15): 4 pg/mL | IFN-g ([1]; donor 28188, Table 15): 7 pg/mL | IFN-α (pg/ml) mean [1, 9]: 300 pg/mL | IFN-γ (pg/ml) mean [1, 9]: 413 pg/mL | IFN-a (pg/ml) mean [1, 10]: 128 pg/mL | IFN-g (pg/ml) mean [1, 10]: 103 pg/mL | IFN-a (pg/ml) ×2 ([1]; mean ×2, Table 15): 256 pg/mL | IFN-g (pg/ml) ×4 ([1]; mean ×4, Table 15): 413 pg/mL | immunomodulatory activity (IFN-γ / IFN-α secretion), in words ([1]; used alone (no cPLGA)): more active than other CG-containing CICs | cpm1 ([2]; Donor 146, 2 μg/ml): 30338 cpm | cpm2 ([2]; Donor 146, 2 μg/ml): 22685 cpm | cpm3 ([2]; Donor 146, 2 μg/ml): 22383 cpm | mean cpm ([2]; Donor 146 mean): 25135 cpm | cpm1 ([2]; Donor 147, 2 μg/ml): 28819 cpm | cpm2 ([2]; Donor 147, 2 μg/ml): 530 cpm | cpm3 ([2]; Donor 147, 2 μg/ml): 37088 cpm | mean cpm ([2]; Donor 147 mean): 22146 cpm | mean of both ([2]; mean of Donors 146 and 147, 2 μg/ml): 23641 cpm | B cell proliferation, in words ([3]; 48 h plus 8 h 3H-thymidine pulse): cause B cells to proliferate | cpm1 [3, 11]: 28467 cpm | cpm2 [3, 11]: 16074 cpm | cpm3 [3, 11]: 19258 cpm | mean cpm ([3]; B cells, Donor 146 mean, Experiment A): 21266 cpm | cpm1 [3, 12]: 17604 cpm | cpm2 [3, 12]: 18851 cpm | cpm3 [3, 12]: 19887 cpm | mean cpm ([3]; B cells, Donor 147 mean, Experiment A): 18781 cpm | mean of both ([3]; B cells, mean of Donors 146 and 147, Experiment A): 20024 cpm
